From patent US20090298903A1, “USE OF TETRAMIC ACID DERIVATIVES FOR INSECT CONTROL” (priority 2006, published 2009)

Legend:
Assay type in all cases: in vivo
Empoasca biguttula [1] = experiment: Example 16: aubergines against Empoasca biguttula; details: for Efficacy (% Abott) 2 d: 2 d after first treatment, nymphs, Imidacloprid (SL 100) 30, (I-4) (150 OD) 50, Profenofos (500 EC) 500 g a.s./ha, two applications, interval 7 days; for Efficacy (% Abott) 6 d: 6 d after first treatment; for Efficacy (% Abott) 6 d / Efficacy (% Abott) 13 d: Imidacloprid 30, (I-4) 50, Profenofos 500 g a.s./ha; for Efficacy (% Abott) 13 d: 13 d after first treatment
Procedure: (§1) Plots 10 m^2 in size which are planted with aubergines are treated, in three replications, against Empoasca biguttula. The application is carried out with a knapsack sprayer which is operated with pressurized air. Here, the active substance Example (I-4) (150 OD) is tested against the commercial standards Imidacloprid (SL 100) and Profenofos (500 EC) at the specified application rates. Two applications are carried out at an interval of 7 days. The water application rate is 750 l/ha.
The test is evaluated 2, 6 and 13 days after the first treatment by scoring the destruction rates of the animals (nymphs) on the plants.

Idioscopus clypealis = experiment: Example 14: mango tree against Idioscopus clypealis; details: nymphs on infructescences; for Efficacy (% Abbott) 7 days after treatment 4 / Efficacy (% Abbott) 7 days after treatment 5: Imidacloprid 0.00025 %, (I-4) 0.0016 %, Pymetrozine 0.002 %; for Efficacy (% Abbott) 7 days after treatment 3: Imidacloprid (100 SL) 0.00025 %, (I-4) (240 SC + 0.2% rapeseed oil methyl ester) 0.0016 %, Pymetrozine (WP 25) 0.002 %
Procedure: A mango tree which is approximately 14 years old is treated, in three replications, against Idioscopus clypealis. The application is carried out with a high-pressure sprayer. Here, the active substance Example (I-4) (240 SC), in a tank mix with 0.2% a.s. rapeseed oil methyl ester (500 EW) and the commercial standards Imidacloprid (100 SL) and Pymetrozine (WP 25), is tested at the specified application rates. The amount of spray mixture is 10 l/tree. Five treatments are carried out at intervals of 7, 14, 21 and 28 days.
The test is evaluated in each case 7 days after treatments 3 to 5 by scoring the destruction rate of the nymphs on the infructescences.

[2] = tested on: olive fruit fly (Dacus oleae); experiment: Example 22B: laboratory experiment, olives against olive fruit fly; details: olives treated three days after oviposition; Imidacloprid (200 SL) 0.01 %, (I-4) (100 OD) 0.02 %, Fenthion (500 EC) 0.05 %; untreated 84.4
Procedure: In a laboratory experiment, 40 olives are treated, in four replications, against the olive fruit fly (Dacus oleae) three days after oviposition. Here, the active substance (I-4) (100 OD) and the commercial standards Fenthion (500 EC) and Imidacloprid (200 SL) are tested at the specified application rates.
The test is evaluated 14 days after oviposition by counting the number of feeding tunnels (larval development completed), while the absence of such feeding tunnels indicates the efficacy against the larvae.

[3] = tested on: flea beetles (Phyllotreta sp.); experiment: Example 24: aubergines against flea beetles; details: 7 d after the last of four treatments, larvae, Imidacloprid (100 SL) 100, (I-4) (100 OD) 70, Profenofos (500 EC) 500 g a.s./ha
Procedure: Plots approx. 12 m^2 in size which are planted with aubergines cv. “DLP” are treated, in three replications, against flea beetles (Phyllotreta sp.). The application is carried out with a knapsack sprayer which is operated with pressurized air. Here, the active substance Example (I-4) (100 OD) and the commercial standards Imidacloprid (100 SL) and Profenofos (500 EC) are applied at the specified application rates. Four applications are carried out at intervals of 7, 8 and 10 days, with a water application rate of 750 l/ha.
The test is evaluated 7 days after the last treatment by scoring the destruction rate of the larvae on the plants.

Empoasca biguttula [4] = experiment: Example 12: cotton against Empoasca biguttula; details: for Efficacy (% H + T) 3 d: 3 d after second treatment, Henderson and Tilton, Imidacloprid (SL 100) 30, (I-4) (240 SC + 0.2% rapeseed oil methyl ester) 24, Buprofezin (WP50) 50 g a.s./ha; for Efficacy (% H + T) 7 d: 7 d after second treatment; for Efficacy (% H + T) 7 d / Efficacy (% H + T) 14 d / Efficacy (% H + T) 21 d: Imidacloprid 30, (I-4) 24, Buprofezin 50 g a.s./ha; for Efficacy (% H + T) 14 d: 14 d after second treatment; for Efficacy (% H + T) 21 d: 21 d after second treatment
Procedure: as §1, with “cotton” for “aubergines”, “sprayer” for “sprayer which is”, “(240 SC), in a tank mix with 0.2% a.s. rapeseed oil methyl ester (500 EW),” for “(150 OD)”, “Buprofezin (WP50)” for “Profenofos (500 EC)”
The test is evaluated 3, 7, 14 and 21 days after the second treatment by counting the live animals. Thereafter, the efficacy is calculated in percent, using the formula of Henderson and Tilton.

Scirtothrips dorsalis = experiment: Example 10: tea plants against Scirtothrips dorsalis; details: 7 d after treatment, nymphs, Ethiprole (SC10) 0.005, (I-4) (100 OD) 0.01, Imidacloprid (50 WG) 0.005 % a.s.
Procedure: Plots approx. 5 m^2 in size which are planted with tea plants cv. “Yabukita” which are approximately 18 years old are treated, in three replications, against Scirtothrips dorsalis. Here, the active substance Example (I-4) (100 OD) is tested, at the specified application rates, against the commercial standards Ethiprole (SC10 flowable) and Imidacloprid (50 WG). The application is carried out with a sprayer which is operated with pressurized air. The water application rate is 4500 l/ha. The test is evaluated 7 days after the treatment by scoring the destruction rate of the nymphs and the plants.

Phyllocnistis citrella = experiment: Example 27: orange trees against Phyllocnistis citrella; details: larvae on shoots; for Efficacy (% Abbott) 7 d: 7 d after treatment, Imidacloprid (192 SC) 140, (I-4) (150 OD) 132 g a.s./ha; for Efficacy (% Abbott) 14 d: 14 d after treatment, Imidacloprid 140, (I-4) 132 g a.s./ha
Procedure: Small orange trees on plots approximately 30 m^2 in size are treated, in four replications, against Phyllocnistis citrella. The application is carried out with a motor-operated knapsack sprayer. Here, the active substance Example (I-4) (150 OD) is tested against the commercial standard Imidacloprid (192 SC) at the specified rates. The water application rate is 935 l/ha.
The test is evaluated 7 and 14 days after the treatment by scoring the destruction rates of the larvae on the shoots in percent.

Carpocapsa pomonella = experiment: Example 30: apple trees against Carpocapsa pomonella, fruit damage; details: 14 days after treatment 2, Imidacloprid (200 SC) 0.015 %, (I-4) (150 OD) 0.015 %
Procedure: Approx. 16-year-old apple trees cv. “Golden Delicious” are treated, in four replications, against Carpocapsa pomonella. The application is carried out with a spray diffuser. Here, the active substance Example (I-4) (150 OD) is applied in comparison with Imidacloprid (200 SC) at the specified application rates. Two applications are carried out at an interval of 16 days, with a water application rate of 1000 l/ha.
The test is evaluated 14 days after treatment 2 by scoring the fruit damage with the aid of the Abbott formula.

| Compound | Efficacy (% Abott) 2 d (Empoasca biguttula [1]) | Efficacy (% Abott) 6 d (Empoasca biguttula [1]) | Efficacy (% Abott) 13 d (Empoasca biguttula [1]) | Efficacy (% Abbott) 7 days after treatment 4 (Idioscopus clypealis) | Efficacy (% Abbott) 7 days after treatment 5 (Idioscopus clypealis) | Efficacy (% Abbott) 7 days after treatment 3 (Idioscopus clypealis) | Number of feeding tunnels (%) 14 days after oviposition [2] | Efficacy (% Abbott) 7 d [3] | Efficacy (% H + T) 3 d (Empoasca biguttula [4]) | Efficacy (% H + T) 7 d (Empoasca biguttula [4]) | Efficacy (% H + T) 14 d (Empoasca biguttula [4]) | Efficacy (% H + T) 21 d (Empoasca biguttula [4]) | Efficacy (% Abbott) 7 d (Scirtothrips dorsalis) | Efficacy (% Abbott) 7 d (Phyllocnistis citrella) | Efficacy (% Abbott) 14 d (Phyllocnistis citrella) | Efficacy (% Abbott) (Carpocapsa pomonella) |
| --- | --- | --- | --- | --- | --- | --- | --- | --- | --- | --- | --- | --- | --- | --- | --- | --- |
| CCOC(=O)OC1=C(c2cc(C)ccc2C)C(=O)N[C@]12CC[C@@H](OC)CC2 [Example (I-4)] | 52.4 % Abott | 56.0 % Abott | 66.7 % Abott | 98.1 % Abbott | 99.4 % Abbott | 54.7 % Abbott | 3.1% | 89 % Abbott | 92.1 % H + T | 92.9 % H + T | 84.4 % H + T | 72.6 % H + T | 100 % Abbott | 97.9 % Abbott | 68.2 % Abbott | 73.7 % Abbott |
| O=[N+]([O-])NC1=NCCN1Cc1ccc(Cl)nc1 [Imidacloprid] | 38.1 % Abott | 71.6 % Abott | 58.7 % Abott | 82.2 % Abbott | 86.4 % Abbott | 69.1 % Abbott | 11.9% | 98 % Abbott | 97.3 % H + T | 99.6 % H + T | 95.6 % H + T | 72.5 % H + T | 44.4 % Abbott | 91.7 % Abbott | 52.3 % Abbott | 26.3 % Abbott |
